From the NIST ThermoML archive (doi:10.1021/acs.jced.5b00545)

Conditions: Liquid; for vapor or sublimation pressure: Closed cell (Static) method; for mass density / kinematic viscosity: 101.33 kPa; for mass density: Pycnometric method; for kinematic viscosity: Capillary tube (Ostwald / Ubbelohde) method

CCCCCCCCCCCCCCCC(=O)OC [methyl hexadecanoate]
Conditions | vapor or sublimation pressure [kPa]
407.12 K | 0.13
414.26 K | 0.21
418.18 K | 0.24
422.34 K | 0.27
424.68 K | 0.305
427.54 K | 0.365
429.32 K | 0.415
432.32 K | 0.42
434.18 K | 0.515
437.3 K | 0.545
438.44 K | 0.56
439.6 K | 0.65
441 K | 0.66
445.36 K | 0.84
447.06 K | 0.85

CCCCCC[C@@H](O)CC=CCCCCCCCC(=O)OC [[R]-methyl 12-hydroxy-9-octadecenoate]
Conditions | kinematic viscosity [m2/s] | mass density [kg/m3] | vapor or sublimation pressure [kPa]
293.16 K | – | 928.5 | –
298.23 K | 2.95e-05 | – | –
303.13 K | 2.35e-05 | – | –
303.17 K | – | 921.2 | –
308.25 K | 1.81e-05 | – | –
313.15 K | 1.49e-05 | – | –
313.33 K | – | 916.7 | –
318.38 K | 1.2e-05 | – | –
323.05 K | – | 910.3 | –
323.08 K | 1.01e-05 | – | –
328.12 K | 8.52e-06 | – | –
333.15 K | 7.25e-06 | – | –
333.25 K | – | 904 | –
338.05 K | 6.26e-06 | – | –
343.1 K | 5.43e-06 | – | –
343.32 K | – | 895.8 | –
348.06 K | 4.76e-06 | – | –
353.06 K | – | 883.3 | –
353.11 K | 4.2e-06 | – | –
358.15 K | 3.73e-06 | – | –
363.38 K | – | 875 | –
373.26 K | – | 865.8 | –
383.23 K | – | 857.5 | –
451.58 K | – | – | 0.232
454.7 K | – | – | 0.276
457.23 K | – | – | 0.319
459.5 K | – | – | 0.361
461.85 K | – | – | 0.41
463.55 K | – | – | 0.449
465.2 K | – | – | 0.49
466.83 K | – | – | 0.533
469.55 K | – | – | 0.61
470.4 K | – | – | 0.637
471.25 K | – | – | 0.665
472.3 K | – | – | 0.7
473.15 K | – | – | 0.73
474.9 K | – | – | 0.794
476.8 K | – | – | 0.868
